# From patent US20230038138A1, “COMBINATION THERAPY FOR TREATING CANCER” (ASTRAZENECA AB, priority 2020, published 2023)
# System: NIH-OVCAR3 human ovarian tumor cells
# Experiment: Efficacy in OVCAR3 xenograft model (tumor volume)
# Format: in vivo, female CB.17 SCID mice
# Conditions: dosed for 42 days
# From the text: OVCAR3: NIH-OVCAR3 human ovarian tumor cells (15×10^6/mouse) were implanted subcutaneously in female CB.17 SCID mice. The mice were randomized into groups of eight for efficacy, based on tumor volume and treated with either vehicle (0.5% HPMC/0.1% Tween 80), AZD5153; olaparib or the combination of AZD5153 and olaparib approximately 10 days after implantation. AZD5153 was formulated in 0.5% HPMC/0.1% Tween 80 and dosed orally for 42 days. Olaparib was formulated in 50% of 30% w/v HP-β-CD (Kleptose) in purified water and also dosed for 42 days. For the combination groups, olaparib was dosed daily for 42 days and AZD5153 was dosed either daily, for 7 days on and 14 days off for 2 cycles or 14 days on and 7 days off for 2 cycles. Tumor length and width was measured by caliper and tumor volume was calculated using the formula (length×width^2)*π/6 then reported as tumor volume.
row,Structure (SMILES),efficacy (tumor volume) as monotherapy
1,"COc1nnc2ccc(N3CCC(c4ccc(OCCN5CCN(C)C(=O)[C@H]5C)cc4)CC3)nn12 [AZD5153, (3R)-4-[2-[4-[1-(3-Methoxy-[1,2,4]triazolo[4,3-b]pyridazin-6-yl)-4-piperidyl]phenoxy]ethyl]-1,3-dimethyl-piperazin-2-one]",modestly efficacious
2,"O=C(c1cc(Cc2n[nH]c(=O)c3ccccc23)ccc1F)N1CCN(C(=O)C2CC2)CC1 [olaparib, 4-[(3-{[4-(cyclopropylcarbonyl)piperazin-1-yl]carbonyl}-4-fluorophenyl)methyl]phthalazin-1(2H)-one]",modestly efficacious
